Experiments:
JAK-2 = target: T1, JAK-2 (Homo sapiens, UniProt O60674); experiment: JAK kinase assay (JAK-2), time-resolved fluorescence energy transfer or radiometric filter-binding/flash plate; format: biochemical; conditions: GST fusion of JAK-2 kinase domain (JH-1)
T1 construct: contain the kinase domain (JH-1 domain) of the full length proteins and are used as GST fusion proteins
Experimental: (§1) JAK-2 or JAK-3 enzymatic activity is determined using a time-resolved fluorescence energy transfer technology. The phosphorylation of a synthetic biotinylated peptide substrate (GGEEEYFELVKKKK) by either JAK-2 or JAK-3 in the presence of ATP is quantified using Europium labeled anti phosphotyrosine antibody and Streptavidin-Allophycocyanin Both JAK-2 and JAK-3 enzymes used in these assays contain the kinase domain (JH-1 domain) of the full length proteins and are used as GST fusion proteins.
(§2) Inhibitors are dissolved in DMSO. Dilutions are prepared in 90% DMSO followed by additional dilutions steps as required to perform a 8-point concentration-response.
(§3) The reaction mix consists of 5 μL of diluted compound, 10 μl of assay buffer and 5 μl of enzyme dilution. After incubation for 60 minutes at room temperature the reaction is stopped by the addition of EDTA. For detection of the product anti-phosphotyrosine antibody and Streptavidin-APC are added and after 60 minutes the samples are measured in an EnVision 2102 Multilabel Reader with excitation wavelength of 320 nm and emission at 665 nm. […] Membranes are counted after drying at ambient temperature, mounting in Packard TopCount 96-well frame, and addition of 10 μl/well of Microscint. The plates are eventually sealed and counted in a microplate scintillation counter (TopCount NXT, TopCount NXT HTS, PerkinElmer, Brussels, Belgium).

JAK-3 = target: T2, JAK-3 (Homo sapiens, UniProt P52333); experiment: JAK kinase assay (JAK-3), time-resolved fluorescence energy transfer or radiometric filter-binding/flash plate; format: biochemical; conditions: GST fusion of JAK-3 kinase domain (JH-1)
T2 construct: contain the kinase domain (JH-1 domain) of the full length proteins and are used as GST fusion proteins
T2 sequence (P52333 822-1111 limits assumed, species assumed): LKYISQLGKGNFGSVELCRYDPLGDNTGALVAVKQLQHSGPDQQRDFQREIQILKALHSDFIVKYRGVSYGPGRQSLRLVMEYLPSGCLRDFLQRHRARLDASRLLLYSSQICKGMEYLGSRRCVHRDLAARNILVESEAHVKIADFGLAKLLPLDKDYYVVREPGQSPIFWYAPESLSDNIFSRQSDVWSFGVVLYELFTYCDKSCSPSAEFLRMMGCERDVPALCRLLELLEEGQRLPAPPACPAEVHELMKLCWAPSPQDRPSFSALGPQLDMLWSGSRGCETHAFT
Experimental: as §1, §2, §3

T1 sequence (O60674 849-1124 limits assumed, species assumed): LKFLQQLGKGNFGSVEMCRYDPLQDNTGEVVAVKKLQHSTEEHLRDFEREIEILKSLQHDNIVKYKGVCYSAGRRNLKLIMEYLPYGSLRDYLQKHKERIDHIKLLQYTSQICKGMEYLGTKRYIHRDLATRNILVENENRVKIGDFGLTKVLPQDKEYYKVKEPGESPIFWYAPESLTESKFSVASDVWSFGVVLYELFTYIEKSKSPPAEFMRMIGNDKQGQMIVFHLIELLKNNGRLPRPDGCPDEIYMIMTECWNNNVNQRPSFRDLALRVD

Row | IC50 (JAK-2) [nM] | IC50 (JAK-3) [nM] | Compound
1 | 179 | – | CNS(=O)(=O)c1ccccc1Nc1nc(Nc2cc(OC)ccc2F)ncc1C(N)=O [Example 5, 2-(2-Fluoro-5-methoxy-phenylamino)-4-(2-methylsulfamoyl-phenylamino)-pyrimidine-5-carboxylic acid amide]
2 | – | 26 | COc1ccc(F)c(Nc2ncc(C(N)=O)c(Nc3ccccc3N(C)S(C)(=O)=O)n2)c1 [Example 6, 2-(2-Fluoro-5-methoxy-phenylamino)-4-[2-(methanesulfonyl-methyl-amino)-phenylamino]-pyrimidine-5-carboxylic acid amide]

Source: US20100010025A1, “Pyrimidine Derivatives” (Norvartis AG, priority 2006, published 2010)
